Assay results: patent publication US9006426B2, “Squaric acid derivatives as inhibitors of the nicotinamide” (Topotarget A/S, priority 2008, dated 2015)
Where a name gives a salt, the structure may show the parent alone.

These molecules were tested on A2780 cells (assay: In vitro cell proliferation assay (WST-1 assay)). Settings: Homo sapiens, total incubation time 72 h, WST-1 reagent.
Type: cell-based
Method: In Vitro Cell Proliferation Assay (WST-1 Assay)
A2780 cells were seeded in 96-well plates at 3×10^3 cells/well in 100 μL of culture medium, 8 wells were left empty for media only controls.
After 24 h the compound titrations were performed, in a separate dilution plate, by serially diluting the compounds of general formula (I) in culture medium. A 100 μL of each dilution was added to the plated cells, this was done in triplicate, and controls (e.g. DMSO and blanks) were included. The plates were incubated for 24 h at 37° C. in a CO2 incubator. The compound titrations were repeated in a separate dilution plate after 24 h. The media plus compound from the assay plates were then aspirated. A 100 μL of media was then added to all wells, followed by 100 μL of each compound dilution. The plates were incubated for a further 48 h at 37° C. in a CO2 incubator (total incubation time 72 h). The number of viable cells was then assessed using Cell Proliferation Reagent WST-1. 10 μL of WST-1 reagent added to each well and incubated for one to four hours at 37° C. in CO2 incubator. The absorbance was measured (450 nm/690 nm).
The activity of compounds of general formula (I) in reducing the number of viable cells was calculated as: % activity=[(S^c−B)/(S^o−B)]×100
S^c denotes signal measured in the presence of test compound, S^o denotes signal detected in the absence of compound, and B denotes background signal, measured in blank wells containing medium only. Analyse data using GraphPad Prism.
Results can be seen in Table 1, wherein IC50 is the concentration giving 50% activity.

| Structure (SMILES) | IC50 |
| --- | --- |
| O=C(OCCCCCNc1c(Nc2ccncc2)c(=O)c1=O)N(OCCN1CCOCC1)C1CCCCC1 [Compound 1026, 5-(3,4-dioxo-2-(pyridin-4-ylamino)cyclobut-1-enylamino)pentyl cyclohexyl(2-morpholinoethoxy)carbamate] | 0.6 nM |
| O=c1c(NCCCCCCS(=O)(=O)N(Cc2ccccc2)OCCC2CCCCC2)c(Nc2ccncc2)c1=O [Compound 1010, N-benzyl-N-(2-cyclohexylethoxy)-6-(3,4-dioxo-2-(pyridin-4-ylamino)cyclobut-1-enylamino)hexane-1-sulfonamide] | 0.93 nM |
| O=c1c(NCCCCCCS(=O)(=O)N(CCN2CCOCC2)C2CCCCC2)c(Nc2ccncc2)c1=O [Compound 1067, N-cyclohexyl-6-(3,4-dioxo-2-(pyridin-4-ylamino)cyclobut-1-enylamino)-N-(2-morpholinoethyl)hexane-1-sulfonamide] | 1.13 nM |
| CN(OCCC1CCCCC1)S(=O)(=O)CCCCCCNc1c(Nc2ccncc2)c(=O)c1=O [Compound 1011, N-(2-cyclohexylethoxy)-6-(3,4-dioxo-2-(pyridin-4-ylamino)cyclobut-1-enylamino)-N-methylhexane-1-sulfonamide] | 0.085 nM |
| O=c1c(NCCCCCCS(=O)(=O)N(CCCN2CCOCC2)C2CCCCC2)c(Nc2ccncc2)c1=O [Compound 1050, N-Cyclohexyl-6-(3,4-dioxo-2-(pyridin-4-ylamino)cyclobut-1-enylamino)-N-(3-morpholinopropyl)hexane-1-sulfonamide] | 1.19 nM |
| CC(C)N(OCCN1CCOCC1)S(=O)(=O)CCCCCCNc1c(Nc2ccncc2)c(=O)c1=O [Compound 1047, 6-(3,4-dioxo-2-(pyridin-4-ylamino)cyclobut-1-enylamino)-N-isopropyl-N-(2-morpholinoethoxy)hexane-1-sulfonamide] | 0.12 nM |
| O=c1c(NCCCCCCS(=O)(=O)N2CCOCC2)c(Nc2ccncc2)c1=O [Compound 1031, 3-(6-(morpholinosulfonyl)hexylamino)-4-(pyridin-4-ylamino)cyclobut-3-ene-1,2-dione] | 41.3 nM |
| O=c1c(NCCCCCCS(=O)(=O)N(OCCN2CCOCC2)C2CCCCCC2)c(Nc2ccncc2)c1=O [Compound 1060, N-cycloheptyl-6-(3,4-dioxo-2-(pyridin-4-ylamino)cyclobut-1-enylamino)-N-(2-morpholinoethoxy)hexane-1-sulfonamide] | 0.69 nM |
| O=c1c(NCCCCCCS(=O)(=O)N(OCCN2CCOCC2)C2CCCC2)c(Nc2ccncc2)c1=O [Compound 1058, N-cyclopentyl-6-(3,4-dioxo-2-(pyridin-4-ylamino)cyclobut-1-enylamino)-N-(2-morpholinoethoxy)hexane-1-sulfonamide] | 0.75 nM |
| O=C(CCCCCCCNc1c(Nc2ccncc2)c(=O)c1=O)N(Cc1ccccc1)OCCN1CCOCC1 [Compound 1018, N-benzyl-8-(3,4-dioxo-2-(pyridin-4-ylamino)cyclobut-1-enylamino)-N-(2-morpholinoethoxy)octanamide] | 0.26 nM |
| O=c1c(NCCCCCCS(=O)(=O)N(CCN2CCOCC2)c2ccc(Cl)cc2)c(Nc2ccncc2)c1=O [Compound 1080, N-(4-chlorophenyl)-6-(3,4-dioxo-2-(pyridin-4-ylamino)cyclobut-1-enylamino)-N-(2-morpholinoethyl)hexane-1-sulfonamide] | 0.66 nM |
| O=C(CCCCCCNc1c(Nc2ccncc2)c(=O)c1=O)N(Cc1ccccc1)OCCN1CCOCC1 [Compound 1016, N-benzyl-7-(3,4-dioxo-2-(pyridin-4-ylamino)cyclobut-1-enylamino)-N-(2-morpholinoethoxy)heptanamide] | 0.56 nM |
| O=C(NCCCCCNc1c(Nc2ccncc2)c(=O)c1=O)N(OCCN1CCOCC1)C1CCCCC1 [Compound 1039, 1-cyclohexyl-3-(5-(3,4-dioxo-2-(pyridin-4-ylamino)cyclobut-1-enylamino)pentyl)-1-(2-morphinethoxy)urea] | 4.49 nM |
| O=c1c(NCCCCCS(=O)(=O)N(OCCN2CCOCC2)C2CCCC2)c(Nc2ccncc2)c1=O [Compound 1078, N-cyclopentyl-6-(3,4-dioxo-2-(pyridin-4-ylamino)cyclobut-1-enylamino)-N-(2-morpholinoethoxy)pentane-1-sulfonamide] | 0.42 nM |
| CN(C1CCCCCC1)S(=O)(=O)CCCCCCNc1c(Nc2ccncc2)c(=O)c1=O [Compound 1027, N-cycloheptyl-6-(3,4-dioxo-2-(pyridin-4-ylamino)cyclobut-1-enylamino)-N-methylhexane-1-sulfonamide] | 0.08 nM |
| CN(OCc1ccccc1)S(=O)(=O)CCCCCCNc1c(Nc2ccncc2)c(=O)c1=O [Compound 1076, N-(benzyloxy)-6-(3,4-dioxo-2-(pyridin-4-ylamino)cyclobut-1-enylamino)-N-methylhexane-1-sulfonamide] | 0.25 nM |
| O=c1c(NCCCCCCS(=O)(=O)N(CCN2CCOCC2)C2CCCCCC2)c(Nc2ccncc2)c1=O [Compound 1021, N-cycloheptyl-6-(3,4-dioxo-2-(pyridin-4-ylamino)cyclobut-1-enylamino)-N-(2-morpholinoethyl)hexane-1-sulfonamide] | 0.25 nM |
| O=c1c(NCCCCCCS(=O)(=O)N(CCN2CCOCC2)OCCC2CCCCC2)c(Nc2ccncc2)c1=O [Compound 1009, N-(2-cyclohexylethoxy)-6-(3,4-dioxo-2-(pyridin-4-ylamino)cyclobut-1-enylamino)-N-(2-morpholinoethyl)hexane-1-sulfonamide] | 0.43 nM |
| O=c1c(NCCCCCCS(=O)(=O)N2CCCCCC2)c(Nc2ccncc2)c1=O [Compound 1030, 3-(6-(azepan-1-ylsulfonyl)hexylamino)-4-(pyridin-4-ylamino)cyclobut-3-ene-1,2-dione] | 0.53 nM |
| O=c1c(NCCCCCS(=O)(=O)N(OCCN2CCOCC2)C2CCCCC2)c(Nc2ccncc2)c1=O [Compound 1053, N-Cyclohexyl-5-(3,4-dioxo-2-(pyridin-4-ylamino)cyclobut-1-enylamino)-N-(2-morpholinoethoxy)pentane-1-sulfonamide] | 0.5 nM |
| O=c1c(NCCCCCCS(=O)(=O)N(OCCN2CCOCC2)C2CCCCC2)c(Nc2ccncc2)c1=O [Compound 1051, N-Cyclohexyl-6-(3,4-dioxo-2-(pyridin-4-ylamino)cyclobut-1-enylamino)-N-(2-morpholinoethoxy)hexane-1-sulfonamide oxalate] | 0.45 nM |
| O=c1c(NCCCCCCS(=O)(=O)N(CCCN2CCOCC2)CCN2CCOCC2)c(Nc2ccncc2)c1=O [Compound 1019, 6-(3,4-dioxo-2-(pyridin-4-ylamino)cyclobut-1-enylamino)-N-(2-morpholinoethyl)-N-(3-morpholinopropyl)hexane-1-sulfonamide] | 26 nM |
| O=c1c(NCCCCCCS(=O)(=O)N(CCN2CCOCC2)OCc2ccccc2)c(Nc2ccncc2)c1=O [Compound 1077, N-(benzyloxy)-6-(3,4-dioxo-2-(pyridin-4-ylamino)cyclobut-1-enylamino)-N-(2-morpholinoethyl)hexane-1-sulfonamide] | 0.066 nM |
| O=c1c(NCCCCCCCS(=O)(=O)N(OCCN2CCOCC2)C2CCCCC2)c(Nc2ccncc2)c1=O [Compound 1052, N-Cyclohexyl-7-(3,4-dioxo-2-(pyridin-4-ylamino)cyclobut-1-enylamino)-N-(2-morpholinoethoxy)heptane-1-sulfonamide] | 0.3 nM |
| CCOP(=O)(CCCCCCNc1c(Nc2ccncc2)c(=O)c1=O)NC1CCCCC1 (centres unmarked) [Compound 1068, Ethyl N-cyclohexyl-P-(6-(3,4-dioxo-2-(pyridin-4-ylamino)cyclobut-1-enylamino)hexyl)phosphonimidate] | 0.18 nM |
| O=C(CCCCCCNc1c(Nc2ccncc2)c(=O)c1=O)N(OCCN1CCOCC1)C1CCCCC1 [Compound 1007, N-cyclohexyl-7-(3,4-dioxo-2-(pyridin-4-ylamino)cyclobut-1-enylamino)-N-(2-morpholinoethoxy)heptanamide] | 0.03 nM |
| O=C(CCCCCCNc1c(Nc2cccnc2)c(=O)c1=O)N(OCCN1CCOCC1)C1CCCCC1 [Compound 1033, N-cyclohexyl-7-(3,4-dioxo-2-(pyridin-3-ylamino)cyclobut-1-enylamino)-N-(morpholinoethoxy)heptanamide] | 0.6 nM |
| COCCOCCOCCN(OCCC1CCCCC1)S(=O)(=O)CCCCCCNc1c(Nc2ccncc2)c(=O)c1=O [Compound 1008, N-(2-cyclohexylethoxy)-6-(3,4-dioxo-2-(pyridin-4-ylamino)cyclobut-1-enylamino)-N-(2-(2-(2-methoxyethoxy)ethoxy)ethyl)hexane-1-sulfonamide] | 0.48 nM |
| O=c1c(NCCCCCCS(=O)(=O)N(CCCN2CCOCC2)C2CCC2)c(Nc2ccncc2)c1=O [Compound 1062, N-cyclobutyl-6-(3,4-dioxo-2-(pyridin-4-ylamino)cyclobut-1-enylamino)-N-(3-morpholinopropyl)hexane-1-sulfonamide] | 0.42 nM |
